The values that follow come from patent US10392391B2 (Vertex Pharmaceuticals Incorporated, priority 2012, dated 2019).

SMILES strings stand for the structures.

One test deals with ATR kinase (full-length ATR) (Homo sapiens (Human), UniProt Q13535). Description: ATR inhibition assay (radioactive-phosphate incorporation). The test is classed as biochemical.
Sequence of ATR kinase (full-length ATR) (Q13535 whole entry): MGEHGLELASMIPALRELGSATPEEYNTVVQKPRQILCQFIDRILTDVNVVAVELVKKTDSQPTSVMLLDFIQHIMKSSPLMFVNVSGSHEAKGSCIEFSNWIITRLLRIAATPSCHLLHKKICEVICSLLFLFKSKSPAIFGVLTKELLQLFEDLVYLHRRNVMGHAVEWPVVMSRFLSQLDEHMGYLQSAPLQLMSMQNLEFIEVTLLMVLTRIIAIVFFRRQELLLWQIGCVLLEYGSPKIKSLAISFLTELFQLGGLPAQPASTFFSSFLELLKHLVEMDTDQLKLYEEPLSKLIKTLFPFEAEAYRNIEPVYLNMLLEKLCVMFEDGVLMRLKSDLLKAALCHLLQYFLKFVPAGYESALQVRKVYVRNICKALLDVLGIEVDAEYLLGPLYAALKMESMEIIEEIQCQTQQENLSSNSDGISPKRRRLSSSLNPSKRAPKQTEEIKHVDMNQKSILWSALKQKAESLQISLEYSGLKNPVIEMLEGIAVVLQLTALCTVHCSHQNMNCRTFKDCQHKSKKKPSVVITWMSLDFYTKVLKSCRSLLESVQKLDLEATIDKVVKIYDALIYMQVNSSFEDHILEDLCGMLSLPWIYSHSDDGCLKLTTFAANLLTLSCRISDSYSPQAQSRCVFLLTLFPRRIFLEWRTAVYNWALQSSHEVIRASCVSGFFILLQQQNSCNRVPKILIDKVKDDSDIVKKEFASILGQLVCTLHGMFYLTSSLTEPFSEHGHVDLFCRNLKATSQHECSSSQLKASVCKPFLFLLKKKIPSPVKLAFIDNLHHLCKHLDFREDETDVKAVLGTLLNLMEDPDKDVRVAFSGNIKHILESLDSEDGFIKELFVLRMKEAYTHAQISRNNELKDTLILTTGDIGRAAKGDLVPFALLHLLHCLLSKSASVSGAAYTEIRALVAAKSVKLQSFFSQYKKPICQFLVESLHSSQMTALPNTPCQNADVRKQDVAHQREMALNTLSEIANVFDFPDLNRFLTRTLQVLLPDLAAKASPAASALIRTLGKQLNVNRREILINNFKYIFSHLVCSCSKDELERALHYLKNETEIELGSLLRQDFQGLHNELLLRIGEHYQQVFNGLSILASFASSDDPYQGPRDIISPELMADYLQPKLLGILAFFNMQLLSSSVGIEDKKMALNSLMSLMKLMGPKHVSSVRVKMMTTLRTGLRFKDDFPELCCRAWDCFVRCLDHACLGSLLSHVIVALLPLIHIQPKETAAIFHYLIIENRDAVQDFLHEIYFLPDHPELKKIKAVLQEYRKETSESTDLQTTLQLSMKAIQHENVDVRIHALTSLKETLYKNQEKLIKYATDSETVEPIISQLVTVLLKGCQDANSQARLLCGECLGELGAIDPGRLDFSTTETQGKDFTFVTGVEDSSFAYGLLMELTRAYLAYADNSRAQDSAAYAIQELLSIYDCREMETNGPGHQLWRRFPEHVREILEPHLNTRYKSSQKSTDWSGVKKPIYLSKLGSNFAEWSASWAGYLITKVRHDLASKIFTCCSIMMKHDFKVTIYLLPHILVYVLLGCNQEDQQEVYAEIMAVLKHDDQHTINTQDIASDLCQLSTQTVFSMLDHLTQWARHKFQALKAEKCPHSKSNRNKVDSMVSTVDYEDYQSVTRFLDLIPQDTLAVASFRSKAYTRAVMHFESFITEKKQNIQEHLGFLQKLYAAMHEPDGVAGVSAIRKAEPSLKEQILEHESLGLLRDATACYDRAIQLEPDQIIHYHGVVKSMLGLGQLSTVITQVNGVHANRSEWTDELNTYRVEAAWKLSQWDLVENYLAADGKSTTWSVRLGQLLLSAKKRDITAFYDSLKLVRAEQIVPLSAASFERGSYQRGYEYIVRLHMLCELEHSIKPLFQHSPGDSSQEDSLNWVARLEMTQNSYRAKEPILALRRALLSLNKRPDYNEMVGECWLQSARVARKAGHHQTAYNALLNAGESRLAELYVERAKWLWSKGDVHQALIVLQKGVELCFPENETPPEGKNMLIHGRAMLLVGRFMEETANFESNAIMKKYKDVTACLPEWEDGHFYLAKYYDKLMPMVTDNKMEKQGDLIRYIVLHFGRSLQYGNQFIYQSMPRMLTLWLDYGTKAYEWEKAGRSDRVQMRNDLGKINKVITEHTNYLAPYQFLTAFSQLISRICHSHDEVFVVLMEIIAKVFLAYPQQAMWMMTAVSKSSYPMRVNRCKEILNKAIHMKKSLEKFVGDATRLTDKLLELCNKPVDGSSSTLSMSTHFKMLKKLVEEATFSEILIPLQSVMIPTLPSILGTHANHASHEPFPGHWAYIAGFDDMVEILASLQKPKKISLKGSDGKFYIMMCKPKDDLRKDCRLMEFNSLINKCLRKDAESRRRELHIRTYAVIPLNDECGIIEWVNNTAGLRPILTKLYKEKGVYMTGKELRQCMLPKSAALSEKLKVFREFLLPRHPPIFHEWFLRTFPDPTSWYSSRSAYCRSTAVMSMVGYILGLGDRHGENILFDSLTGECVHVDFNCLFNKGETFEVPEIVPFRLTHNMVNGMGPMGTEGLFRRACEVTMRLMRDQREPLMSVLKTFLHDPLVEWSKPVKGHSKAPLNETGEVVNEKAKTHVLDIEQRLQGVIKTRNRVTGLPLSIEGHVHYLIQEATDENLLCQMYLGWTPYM
Settings: not given
An outline of the steps: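 Radiometric 33P incorporation by 5 nM full-length ATR into 800 μM target peptide with 10 μM [γ-33P]ATP, in 50 mM Tris/HCl pH 7.5, 10 mM MgCl2, 1 mM DTT, 7% DMSO, 25° C. Compound pre-incubated 10 minutes; reaction stopped after 24 hours, captured on phosphocellulose. Ki(app) from non-linear regression of initial rates.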
As for `CN(C)CCc1cnn(-c2ccncc2NC(=O)c2c(N)nn3cc(F)cnc23)c1` [I-N-9, 2-amino-N-(4-(4-(2-(dimethylamino)ethyl)-1H-pyrazol-1-yl)pyridin-3-yl)-6-fluoropyrazolo[1,5-a]pyrimidine-3-carboxamide], the Ki lay within 1 to 5 µM. The same measure, in the same setting: in the case of `CN1CCN(c2ccncc2NC(=O)c2c(N)nn3cc(C(C)(C)C#N)cnc23)CC1` [I-N-76, 2-amino-6-(2-cyanopropan-2-yl)-N-(4-(4-methylpiperazin-1-yl)pyridin-3-yl)pyrazolo[1,5-a]pyrimidine-3-carboxamide] it was 1 to 5 µM. On to `CN1CCC(c2ccncc2NC(=O)c2c(N)nn3cc(C(C)(C)C#N)cnc23)CC1` [I-C-23, 2-amino-6-(2-cyanopropan-2-yl)-N-(4-(1-methylpiperidin-4-yl)pyridin-3-yl)pyrazolo[1,5-a]pyrimidine-3-carboxamide], for which the Ki was 1 to 5 µM.

Staying with this test, now noted: Ki(app), 5 nM full-length ATR, 10 μM ATP, 25° C.
Turning to `N#CC1(c2cnc3c(C(=O)Nc4cncc(F)c4N4CCN(C5COC5)CC4)c(N)nn3c2)CC1` [I-N-180, 2-amino-6-(1-cyanocyclopropyl)-N-(5-fluoro-4-(4-(oxetan-3-yl)piperazin-1-yl)pyridin-3-yl)pyrazolo[1,5-a]pyrimidine-3-carboxamide], the Ki was 0.01 to 1 µM. For the compound `CN1CCN(c2ccncc2NC(=O)c2c(N)nn3cc(F)cnc23)CC12CCOCC2` [I-N-133, 2-amino-6-fluoro-N-(4-(1-methyl-9-oxa-1,4-diazaspiro[5.5]undecan-4-yl)pyridin-3-yl)pyrazolo[1,5-a]pyrimidine-3-carboxamide], the Ki fell in the range of 0.01 to 1 µM. Same read-out and setting: to `CCOc1ccncc1NC(=O)c1c(N)nn2cc(Cl)cnc12` [I-O-56, 2-amino-6-chloro-N-(4-ethoxypyridin-3-yl)pyrazolo[1,5-a]pyrimidine-3-carboxamide] belongs 0.01 to 1 µM. As to `CN1CCC[C@H]1COc1ccncc1NC(=O)c1c(N)nn2cc(Cl)cnc12` [I-O-50, (S)-2-amino-6-chloro-N-(4-((1-methylpyrrolidin-2-yl)methoxy)pyridin-3-yl)pyrazolo[1,5-a]pyrimidine-3-carboxamide], the Ki lay within 0.01 to 1 µM. In the case of `Cn1cncc1-c1ccncc1NC(=O)c1c(N)nn2cc(F)cnc12` [I-C-56, 2-amino-6-fluoro-N-(4-(1-methyl-1H-imidazol-5-yl)pyridin-3-yl)pyrazolo[1,5-a]pyrimidine-3-carboxamide], the Ki was in the range of 0.01 to 1 µM. As for `COC1(CN(C)C)CCN(c2ccncc2NC(=O)c2c(N)nn3cc(Cl)cnc23)CC1` [I-N-46, 2-amino-6-chloro-N-(4-(4-((dimethylamino)methyl)-4-methoxypiperidin-1-yl)pyridin-3-yl)pyrazolo[1,5-a]pyrimidine-3-carboxamide], the Ki was 0.01 to 1 µM.

On to `CNc1cc(OC)c(NC(=O)c2c(N)nn3cc(F)cnc23)cn1` [I-O-90, 2-amino-6-fluoro-N-(4-methoxy-6-(methylamino)pyridin-3-yl)pyrazolo[1,5-a]pyrimidine-3-carboxamide], for which the Ki was in the range of 0.01 to 1 µM. Still for that read-out and setting: to `CN1CCC(C(=O)N2CCC(c3ccncc3NC(=O)c3c(N)nn4cc(F)cnc34)CC2)CC1` [I-C-16, 2-amino-6-fluoro-N-(4-(1-(1-methylpiperidine-4-carbonyl)piperidin-4-yl)pyridin-3-yl)pyrazolo[1,5-a]pyrimidine-3-carboxamide] belongs 0.01 to 1 µM.

As to `Cc1cnccc1-c1ccncc1NC(=O)c1c(N)nn2cc(F)cnc12` [I-C-29, 2-amino-6-fluoro-N-(3′-methyl-[4,4′-bipyridin]-3-yl)pyrazolo[1,5-a]pyrimidine-3-carboxamide], the Ki was in the range of 0.01 to 1 µM. Turning to `Nc1nn2cc(F)cnc2c1C(=O)Nc1cnccc1N1CCN(S(=O)(=O)C2CC2)CC1` [I-N-176, 2-amino-N-(4-(4-(cyclopropylsulfonyl)piperazin-1-yl)pyridin-3-yl)-6-fluoropyrazolo[1,5-a]pyrimidine-3-carboxamide], the Ki is 0.01 to 1 µM.

As for `CN1CC(C(=O)N2CCN(c3c(F)cncc3NC(=O)c3c(N)nn4cc(F)cnc34)CC2)C1` [I-N-194], the Ki lay within 0.01 to 1 µM. Still for that read-out and setting: in the case of `CN1CCCCC1C(=O)N1CCN(c2c(F)cncc2NC(=O)c2c(N)nn3cc(F)cnc23)CC1` (stereo not drawn) [I-N-214, 2-amino-6-fluoro-N-(5-fluoro-4-(4-(1-methylpiperidine-2-carbonyl)piperazin-1-yl)pyridin-3-yl)pyrazolo[1,5-a]pyrimidine-3-carboxamide] it was 0.01 to 1 µM.

`CN1CCOC[C@@H]1c1ccc(-c2ccncc2NC(=O)c2c(N)nn3cc(F)cnc23)cc1` [I-C-66, (S)-2-amino-6-fluoro-N-(4-(4-(4-methylmorpholin-3-yl)phenyl)pyridin-3-yl)pyrazolo[1,5-a]pyrimidine-3-carboxamide]: the Ki lay within 0.01 to 1 µM. On the same count and under the same terms, in the case of `CC(C)(C)Oc1ccncc1NC(=O)c1c(N)nn2cc(F)cnc12` [I-O-88, 2-amino-N-(4-(tert-butoxy)pyridin-3-yl)-6-fluoropyrazolo[1,5-a]pyrimidine-3-carboxamide] it was 0.01 to 1 µM. Still for that read-out and setting: to `Nc1nn2cc(F)cnc2c1C(=O)Nc1cncc(Cl)c1N1CCN2CCN(C3COC3)CC2C1` (stereo not drawn) [I-N-38, 2-amino-N-(5-chloro-4-(8-(oxetan-3-yl)hexahydro-1H-pyrazino[1,2-a]pyrazin-2(6H)-yl)pyridin-3-yl)-6-fluoropyrazolo[1,5-a]pyrimidine-3-carboxamide] belongs 0.01 to 1 µM; to `Cn1ncnc1-c1ccncc1NC(=O)c1c(N)nn2cc(F)cnc12` [I-C-65, 2-amino-6-fluoro-N-(4-(1-methyl-1H-1,2,4-triazol-5-yl)pyridin-3-yl)pyrazolo[1,5-a]pyrimidine-3-carboxamide], 0.01 to 1 µM; to `Nc1nn2cc(F)cnc2c1C(=O)Nc1cncc(F)c1N1CCC(S(=O)(=O)N2CCC2)CC1` [I-N-169, 2-amino-N-(4-(4-(azetidin-1-ylsulfonyl)piperidin-1-yl)-5-fluoropyridin-3-yl)-6-fluoropyrazolo[1,5-a]pyrimidine-3-carboxamide], 0.01 to 1 µM.

Turning to `CC1(O)CCN(c2ccncc2NC(=O)c2c(N)nn3cc(Cl)cnc23)CC1` [I-N-66, 2-amino-6-chloro-N-(4-(4-hydroxy-4-methylpiperidin-1-yl)pyridin-3-yl)pyrazolo[1,5-a]pyrimidine-3-carboxamide], the Ki is 0.01 to 1 µM.

Regarding `N#CCc1cnc2c(C(=O)Nc3cnccc3O[C@@H]3CCOC3)c(N)nn2c1` [I-O-31, (R)-2-amino-6-(cyanomethyl)-N-(4-((tetrahydrofuran-3-yl)oxy)pyridin-3-yl)pyrazolo[1,5-a]pyrimidine-3-carboxamide], the Ki is less than 0.01 µM. As to `Nc1nn2cc(F)cnc2c1C(=O)Nc1cncc(F)c1N1CCC(C(=O)N2CC(N3CCCCC3)C2)CC1` [I-G-57, 2-amino-6-fluoro-N-(5-fluoro-4-(4-(3-(piperidin-1-yl)azetidine-1-carbonyl)piperidin-1-yl)pyridin-3-yl)pyrazolo[1,5-a]pyrimidine-3-carboxamide], the Ki lay in the range of 0.01 to 1 µM. `COC1CCN(C2CCN(c3ccncc3NC(=O)c3c(N)nn4cc(Cl)cnc34)CC2)C1` (stereo not drawn) [I-N-95, 2-amino-6-chloro-N-(4-(4-(3-methoxypyrrolidin-1-yl)piperidin-1-yl)pyridin-3-yl)pyrazolo[1,5-a]pyrimidine-3-carboxamide]: the Ki was in the range of 0.01 to 1 µM. Turning to `Cn1cc(-c2ccncc2NC(=O)c2c(N)nn3cc(F)cnc23)ccc1=O` [I-C-59, 2-amino-6-fluoro-N-(1-methyl-6-oxo-1,6-dihydro-[3,4′-bipyridin]-3′-yl)pyrazolo[1,5-a]pyrimidine-3-carboxamide], the Ki fell in the range of 0.01 to 1 µM.

With `Cc1ncn(-c2ccncc2NC(=O)c2c(N)nn3cc(F)cnc23)n1` [I-N-161, 2-amino-6-fluoro-N-(4-(3-methyl-1H-1,2,4-triazol-1-yl)pyridin-3-yl)pyrazolo[1,5-a]pyrimidine-3-carboxamide], the Ki is 0.01 to 1 µM. For `Nc1nn2cc(F)cnc2c1C(=O)Nc1cncc(F)c1OC1CCN(C2COC2)CC1` [I-O-91, 2-amino-6-fluoro-N-(5-fluoro-4-((1-(oxetan-3-yl)piperidin-4-yl)oxy)pyridin-3-yl)pyrazolo[1,5-a]pyrimidine-3-carboxamide], the Ki lay in the range of 0.01 to 1 µM. `COC1(C)CN(C(=O)C2CCN(c3ccncc3NC(=O)c3c(N)nn4cc(F)cnc34)CC2)C1` [I-G-79, 2-amino-6-fluoro-N-(4-(4-(3-methoxy-3-methylazetidine-1-carbonyl)piperidin-1-yl)pyridin-3-yl)pyrazolo[1,5-a]pyrimidine-3-carboxamide]: the Ki fell in the range of 0.01 to 1 µM. Still for that read-out and setting: in the case of `Cc1ccnn1-c1ccncc1NC(=O)c1c(N)nn2cc(F)cnc12` [I-N-223, 2-amino-6-fluoro-N-(4-(5-methyl-1H-pyrazol-1-yl)pyridin-3-yl)pyrazolo[1,5-a]pyrimidine-3-carboxamide] it was 0.01 to 1 µM; in that of `Cc1ncnn1-c1ccncc1NC(=O)c1c(N)nn2cc(F)cnc12` [I-N-162, 2-amino-6-fluoro-N-(4-(5-methyl-1H-1,2,4-triazol-1-yl)pyridin-3-yl)pyrazolo[1,5-a]pyrimidine-3-carboxamide], 0.01 to 1 µM; in that of `Nc1nn2cc(Cl)cnc2c1C(=O)Nc1cnccc1N1CCn2ccnc2C1` [I-N-44, 2-amino-6-chloro-N-(4-(5,6-dihydroimidazo[1,2-a]pyrazin-7(8H)-yl)pyridin-3-yl)pyrazolo[1,5-a]pyrimidine-3-carboxamide], 0.01 to 1 µM.

In the case of `Nc1nn2cc(F)cnc2c1C(=O)Nc1cncc(F)c1N1CCN([C@H]2CCOC2)CC1` [I-N-125, (S)-2-amino-6-fluoro-N-(5-fluoro-4-(4-(tetrahydrofuran-3-yl)piperazin-1-yl)pyridin-3-yl)pyrazolo[1,5-a]pyrimidine-3-carboxamide], the Ki fell in the range of 0.01 to 1 µM.

Regarding `CNC1CN(C(=O)C2CCN(c3c(F)cncc3NC(=O)c3c(N)nn4cc(F)cnc34)CC2)C1` [I-G-34, 2-amino-6-fluoro-N-(5-fluoro-4-(4-(3-(methylamino)azetidine-1-carbonyl)piperidin-1-yl)pyridin-3-yl)pyrazolo[1,5-a]pyrimidine-3-carboxamide], the Ki was in the range of 0.01 to 1 µM.
